Assay results taken from the NIST ThermoML archive (doi:10.1007/s10765-009-0610-6).

Conditions: Liquid; for speed of sound: Pulse-echo method; for mass density: 101.33 kPa, Vibrating tube method

BrCCCCCBr [1,5-dibromopentane]
Conditions	speed of sound [m/s]
292.38 K, 100 kPa	1149.5
292.47 K, 91200 kPa	1354
292.48 K, 30400 kPa	1226.2
292.5 K, 45600 kPa	1260.8
292.52 K, 60800 kPa	1293.4
292.53 K, 15210 kPa	1189.1
292.57 K, 101320 kPa	1372.2
292.59 K, 76010 kPa	1324.4
298 K, 60800 kPa	1281.2
298 K, 91200 kPa	1342.4
298 K, 101330 kPa	1361.6
298.01 K, 45600 kPa	1248
298.02 K, 30410 kPa	1212.7
298.03 K, 15210 kPa	1174.8
298.05 K, 76000 kPa	1312.6
298.37 K, 100 kPa	1133
303 K, 76000 kPa	1302
303.01 K, 15200 kPa	1162.1
303.01 K, 30400 kPa	1200.6
303.01 K, 60790 kPa	1270
303.01 K, 91200 kPa	1331.8
303.01 K, 101340 kPa	1350.7
303.02 K, 45600 kPa	1236.5
303.4 K, 100 kPa	1119.3
308.03 K, 15210 kPa	1148.7
308.03 K, 30410 kPa	1187.7
308.03 K, 45590 kPa	1224
308.05 K, 101330 kPa	1340
308.06 K, 60790 kPa	1257.9
308.06 K, 76000 kPa	1290.1
308.06 K, 91200 kPa	1320.5
308.38 K, 100 kPa	1105.8
313.14 K, 76030 kPa	1279.3
313.16 K, 91210 kPa	1310.1
313.16 K, 101330 kPa	1330
313.17 K, 45610 kPa	1212.3
313.18 K, 60800 kPa	1246.8
313.2 K, 15210 kPa	1135.8
313.2 K, 30410 kPa	1175.5
314.36 K, 100 kPa	1089.7

BrCCCBr [1,3-dibromopropane]
Conditions	mass density [kg/m3]
292.55 K	1980.22
297.98 K	1970.22
303.07 K	1961.58
308.02 K	1952.84
314.58 K	1941.18

Conditions	speed of sound [m/s]
292.66 K, 100 kPa	1078.9
292.72 K, 15200 kPa	1114.4
292.78 K, 30400 kPa	1148.6
292.79 K, 45600 kPa	1180.5
292.8 K, 60810 kPa	1210.8
292.8 K, 91220 kPa	1265.8
292.82 K, 76010 kPa	1239.1
292.83 K, 101350 kPa	1283
298.03 K, 76000 kPa	1227.5
298.04 K, 45600 kPa	1167.8
298.04 K, 60810 kPa	1198.5
298.04 K, 91210 kPa	1255
298.05 K, 30400 kPa	1135.1
298.07 K, 15210 kPa	1100.1
298.08 K, 101330 kPa	1272.4
298.61 K, 100 kPa	1062.6
302.95 K, 15210 kPa	1087.4
302.95 K, 30410 kPa	1123
302.95 K, 45600 kPa	1156.1
302.95 K, 60790 kPa	1187.2
302.95 K, 76010 kPa	1216.7
302.95 K, 91220 kPa	1244.5
302.95 K, 101350 kPa	1262.3
303.58 K, 100 kPa	1049
308.04 K, 76010 kPa	1205.6
308.04 K, 91210 kPa	1233.7
308.04 K, 101350 kPa	1251.8
308.05 K, 15210 kPa	1074.3
308.05 K, 30410 kPa	1110.5
308.05 K, 45620 kPa	1144.2
308.05 K, 60820 kPa	1175.8
308.67 K, 100 kPa	1035.3
313.41 K, 15230 kPa	1060.7
313.41 K, 30410 kPa	1097.5
313.41 K, 45610 kPa	1131.7
313.41 K, 60800 kPa	1163.8
313.41 K, 76010 kPa	1194
313.42 K, 91200 kPa	1222.6
313.42 K, 101330 kPa	1240.8
314.7 K, 100 kPa	1019
